Measured values taken from US20220087996A1, “Histone acetylase p300 inhibitor and use thereof” (HINOVA PHARMACEUTICALS INC., priority 2018, published 2022).

What follows are compounds tested on CWR22RV1 cells (assay: Inhibition of proliferation of CWR22RV1 cells (CCK-8)). Conditions: 6 days culture, read-out: IC50 against CWR22RV1 cells.
Assay type: cell-based, human
Method: 1) CWR22RV1 cells were subcultured in cell culture medium, and the cells in good growth condition were seeded in a 96-well plate, 80 μL for each well, and the cell number in each well was 1500. The plate was incubated overnight in a 37° C., 5% CO2 cell incubator. 2) The drug was prepared as 30 mM stock solution with dimethyl sulfoxide (DMSO). Prior to use, the stock solution was diluted 3 times with DMSO, and then further diluted as 3-fold gradient to obtain 9 concentration gradients. Then, each concentration of compound was diluted 200 times with the culture solution (ensuring that the DMSO concentration in the culture system was 0.1%), and two replicate wells were set for each concentration. 20 μL of diluted compound solution was added to the cell culture well (with final concentrations of 10 μM, 3.3 μM. 1.1 μM . . . ), and the plate was gently shaken to mix. In addition, 3 negative control wells containing only cells and 3 blank control wells containing only culture medium were included (6 wells were each added 20 μL DMSO diluted 200 times with culture medium). 2. Result detection: (1) After culturing for 6 days, 10 μL CCK-8 was added to each well, and the plate was continually cultured in a 37° C., 5% CO2 cell incubator for 2.5 h. (2) The absorbance (OD value) was detected at 450 nm using a multifunctional microplate reader. (3) The data were analyzed by Dose-response-inhibition equation in the software GraphPad Prism6, and the IC50 value was obtained.
Work on “1-(2′,4′-dioxo-3′-(2-oxo-2-((S)-2-phenylpyrrolidin-1-yl)ethyl)-2,3-dihydrospiro[cyclopropane-indene-1,5′-oxazolidine]-5-yl)-3-methylurea [Example 325]” yielded an IC50 of over 2000 nM. In the case of `CNC(=O)Nc1ccc2c(c1)CC[C@@]21OC(=O)N(CC(=O)N2C(c3ccc(F)c(Cl)c3)CC[C@@H]2C)C1=O` (stereo in doubt) [Example 369, 1-((R)-3′-(2-((2R,5S)-2-(3-chloro-4-fluorophenyl)-5-methylpyrrolidin-1-yl)-2-oxoethyl)-2′,4′-dioxo-2,3-dihydrospiro[indene-1,5′-oxazolidine]-5-yl)-3-methylurea], the IC50 is reported as over 2000 nM. `CNC(=O)Nc1ccc2c(c1)CC[C@@]21OC(=O)N(CC(=O)N2C[C@@H]3C[C@H]2CN3C(=O)OC(C)(C)C)C1=O` [Example 10, (1S,4S)-5-(2-((R)-5-(3-methylureido)-2′,4′-dioxo-2,3-dihydrospiro[indene-1,5′-oxazolidine]t-butyl-3′-yl)acetyl)-2,5-diazabicyclo[2.2.1]heptane-2-carboxylic Acid t-Butyl Ester] showed an IC50 of over 2000 nM. `CNC(=O)Nc1ccc2c(c1)CC[C@@]21OC(=O)N(CC(=O)N2CCCC2c2ccccc2C)C1=O` (stereo partly drawn) [Example 11, 1-((1R)-2′,4′-dioxo-3′-(2-oxo-2-(2-(o-tolyl)pyrrolidin-1-yl)ethyl)-2,3-dihydrospiro[indene-1,5′-oxazolidine]-5-yl)-3-methylurea] showed an IC50 of 500 to 2000 nM. `CNC(=O)Nc1ccc2c(c1)CC[C@@]21OC(=O)N(CC(=O)N2C(c3ccc(F)cc3)CCC2(C)C)C1=O` (stereo partly drawn) [Example 39, 1-((R)-3′-(2-(5-(4-fluorophenyl)-2,2-dimethylpyrrolidin-1-yl)-2-oxoethyl)-2′,4′-dioxo-2,3-dihydrospiro[indene-1,5′-oxazolidine]-5-yl)-3-methylurea] was tested, and the IC50 was 500 to 2000 nM.

Same assay, conditions: Homo sapiens, CWR22Rv1, 144 h, 6 days culture, read-out: IC50 against CWR22RV1 cells
In the case of `CNC(=O)Nc1ccc2c(c1)CC[C@@]21OC(=O)N(CC(=O)N2C(c3ccc(F)cc3)CC[C@@H]2CO)C1=O` (mixture of isomers) [Example 360, 1-((R)-3′-(2-((R)-2-(4-fluorophenyl)-5-(hydroxymethyl)pyrrolidin-1-yl)-2-oxoethyl)-2′,4′-dioxo-2,3-dihydrospiro[indene-1,5′-oxazolidine]-5-yl)-3-methylurea], the IC50 is reported as over 2000 nM. `CNC(=O)Nc1ccc2c(c1)CC[C@@]21OC(=O)N(CC(=O)N2CCCC2c2ccccc2OC)C1=O` (single isomer, unassigned) [Example 338] showed an IC50 of over 2000 nM. Work on `CNC(=O)Nc1ccc2c(c1)CC[C@]21OC(=O)N(CC(=O)N2CCCC[C@@H]2c2ccccc2)C1=O` [Example 1] yielded an IC50 of over 2000 nM. Compound `CNC(=O)Nc1ccc2c(c1)CC[C@@]21OC(=O)N(CC(=O)N2CCCC[C@@H]2c2ccccc2)C1=O` [Example 2] has an IC50 of over 2000 nM. For `CNC(=O)Nc1ccc2c(c1)CC[C@@]21OC(=O)N(CC(=O)N2C3CCCC2CC3)C1=O` [Example 3], the IC50 was over 2000 nM. For `CNC(=O)Nc1ccc2c(c1)CC[C@]21OC(=O)N(CC(=O)N2CCCC[C@H]2c2ccccc2)C1=O` [Example 4], the IC50 was over 2000 nM. Compound `CNC(=O)Nc1ccc2c(c1)CC[C@@]21OC(=O)N(CC(=O)N2CCCC[C@H]2c2ccccc2)C1=O` [Example 5, 1-((R)-2′,4′-dioxo-3′-(2-oxo-2-((S)-2-phenylpiperidin-1-yl)ethyl)-2,3-dihydrospiro[indene-1,5-oxazolidine]-5-yl)-3-methylurea] has an IC50 of over 2000 nM. `CNC(=O)Nc1ccc2c(c1)CC[C@@]21OC(=O)N(CC(=O)N2C3CCC2CC3)C1=O` [Example 7, 1-((R)-3′-(2-((1S,4S)-7-azabicyclo[2.2.1]heptan-7-yl)-2-oxoethyl)-2′,4′-dioxo-2,3-dihydrospiro[indene-1,5′-oxazolidine]-5-yl)-3-methylurea] was tested, and the IC50 was over 2000 nM. `CNC(=O)Nc1ccc2c(c1)CC[C@@]21OC(=O)N(CC(=O)N2CCC[C@H]2c2ccc(F)cc2C)C1=O` [Example 8, 1-((R)-3′-(2-((S)-2-(4-fluoro-2-methylphenyl)pyrrolidin-1-yl)-2-oxoethyl)-2′,4′-dioxo-2,3-dihydrospiro[indene-1,5′-oxazolidine]-5-yl)-3-methylurea] was tested, and the IC50 was 500 to 2000 nM. In the case of `CNC(=O)Nc1ccc2c(c1)CC[C@@]21OC(=O)N(CC(=O)N2CCCC3CCCCC32)C1=O` (stereo partly drawn) [Example 12, 1-methyl-3-((1R)-3′-(2-(octahydroquinolin-1-(2H)-yl)-2-oxoethyl)-2′,4′-dioxo-2,3-dihydrospiro[indene-1,5′-oxazolidine]-5-yl)urea], the IC50 is reported as over 2000 nM. For `CNC(=O)Nc1ccc2c(c1)CC[C@@]21OC(=O)N(CC(=O)N2CCCC2c2ccccc2OC(F)(F)F)C1=O` (stereo partly drawn) [Example 13, 1-((1R)-2′,4′-dioxo-3′-(2-oxo-2-(2-(2-(trifluoromethoxyl)phenyl)pyrrolidin-1-yl)ethyl)-2,3-dihydrospiro[indene-1,5′-oxazolidine]-5-yl)-3-methylurea], the IC50 was over 2000 nM. With `CNC(=O)Nc1ccc2c(c1)CC[C@@]21OC(=O)N(CC(=O)N2C(c3ccc(F)cc3)CC[C@@H]2C)C1=O` (stereo partly drawn) [Example 15, 1-((R)-3′-(2-((5S)-2-(4-fluorophenyl)-5-methylpyrrolidin-1-yl)-2-oxoethyl)-2′,4′-dioxo2,3-dihydrospiro[indene-1,5′-oxazolidine]-5-yl)-3-methylurea] the IC50 was at most 500 nM. With `CNC(=O)Nc1ccc2c(c1)CCC21OC(=O)N(CC(=O)N2CC3CCC2C3)C1=O` (stereo not shown) [Example 16, 1-(3′-(2-(2-azabicyclo[2.2.1]heptan-2-yl)-2-oxoethyl)-2′,4′-dioxo-2,3-dihydrospiro[indene-1,5′-oxazolidine]-5-yl)-3-methylurea] the IC50 was over 2000 nM. With `CNC(=O)Nc1ccc2c(c1)CC[C@@]21OC(=O)N(CC(=O)N2C(c3ccc(F)cc3)CC[C@H]2C)C1=O` (stereo partly drawn) [Example 18, 1-((R)-3′-(2-((5R)-2-(4-fluorophenyl)-5-methylpyrrolidin-1-yl)-2-oxoethyl)-2′,4′-dioxo-2,3-dihydrospiro[indene-1,5′-oxazolidine]-5-yl)-3-methylurea] the IC50 was at most 500 nM. `CNC(=O)Nc1ccc2c(c1)C1(CC1)CC21OC(=O)N(CC(=O)N2C(C)CCC2c2ccc(F)cc2)C1=O` (stereo not shown) [Example 97, 1-(3′-(2-(2-(4-fluorophenyl)-5-methylpyrrolidin-1-yl)-2-oxoethyl)-2′,4′-dioxo-2,3-dihydrospiro[cyclopropane-1,1′-indene-1,5′-oxazolidine]-5-yl)-3-methylurea] showed an IC50 of over 2000 nM. Compound `CNC(=O)Nc1ccc2c(c1)CC[C@@]21OC(=O)N(CC(=O)N[C@]23C[C@H]4C[C@H](C[C@H](C4)C2)C3)C1=O` [Example 99] has an IC50 of over 2000 nM. Compound `CNC(=O)Nc1ccc2c(c1)CC[C@@]21OC(=O)N(CC(=O)N2CCc3ccccc3C2)C1=O` [Example 100, (R)-1-(3′-(2-(3,4-dihydroisoquinolin-2(1H)-yl)-2-oxoethyl)-2′,4′-dioxo-2,3-dihydrospiro[indene 1,5′-oxazolidine]-5-yl)-3-methylurea] has an IC50 of over 2000 nM. Work on `CNC(=O)Nc1ccc2c(c1)CC[C@@]21OC(=O)N(CC(=O)N2C[C@@H]3C[C@@H]2CO3)C1=O` [Example 103] yielded an IC50 of over 2000 nM. `CNC(=O)Nc1ccc2c(c1)CC[C@@]21OC(=O)N(CC(=O)NC2C(C)(C)C(O)C2(C)C)C1=O` (stereo partly drawn) [Example 105, (R)—N-(3-hydroxyl-2,2,4,4-tetramethylcyclobutyl)-2-(5-(3-Methylureido)-2′,4′-dioxo-2,3-dihydrospiro[indene-1,5′-oxazole]-3′-yl)acetamide] showed an IC50 of over 2000 nM. `CNC(=O)Nc1ccc2c(c1)CC[C@@]21OC(=O)N(CC(=O)N2CCC2c2ccccc2)C1=O` (stereo partly shown) [Example 106] was tested, and the IC50 was over 2000 nM. Compound `CNC(=O)Nc1ccc2c(c1)CC[C@@]21OC(=O)N(CC(=O)N2CCOC[C@@H]2c2ccccc2)C1=O` [Example 107] has an IC50 of over 2000 nM. In the case of `CNC(=O)Nc1ccc2c(c1)CC[C@@]21OC(=O)N(CC(=O)N2C(C(C)(C)C)OC[C@@H]2c2ccccc2)C1=O` (stereo partly shown) [Example 108], the IC50 is reported as over 2000 nM. Compound `CNC(=O)Nc1ccc2c(c1)CC[C@@]21OC(=O)N(CC(=O)N2CCCc3cc(-c4ccn(C)n4)c(C(F)(F)F)cc32)C1=O` [Example 109, (R)-1-methyl-3-(3′-(2-(6-(1-methyl-1H-pyrazol-3-yl)-7-(trifluoromethyl)-3,4-dihydroquinolin-1-(2H)-yl)-2-oxoethyl)-2′,4′-dioxo-2,3-dihydrospiro[indene-1,5′-oxazolidine]-5-yl)urea] has an IC50 of over 2000 nM. `CNC(=O)Nc1ccc2c(c1)CC[C@@]21OC(=O)N(Cc2ncc(-c3ccccc3)[nH]2)C1=O` [Example 110, (R)-1-(2′,4′-dioxo-3′-((5-phenyl-1H-imidazol-2-yl)methyl)-2,3-dihydrospiro[indene-1,5′-oxazolidine]-5-yl)-3-methylurea] showed an IC50 of over 2000 nM. `CNC(=O)Nc1ccc2c(c1)CC[C@@]21OC(=O)N(CC(=O)N2CCCC2c2nccn2C)C1=O` (stereo partly shown) [Example 111] showed an IC50 of over 2000 nM. `CNC(=O)Nc1ccc2c(c1)CC[C@@]21OC(=O)N(CC(=O)N2CCCC2c2cccc3c2OCO3)C1=O` (stereo partly shown) [Example 112] was tested, and the IC50 was over 2000 nM. `Cc1nnn(C)c1-c1ccc2c(c1)CC[C@@]21OC(=O)N(CC(=O)N2[C@@H](C)CC[C@H]2c2ccc(F)cc2)C1=O` [Example 221, (R)-5-(1,4-dimethyl-1H-1,2,3-triazole-5-yl)-3′-(2-((2S,5S)-2-(4-fluorophenyl)-5-methylpyrrolidin-1-yl)-2-oxoethyl)-2,3-dihydrospiro[indene-1,5′-oxazolidine]-2′,4′-dione] gave an IC50 of over 2000 nM.

Same assay, conditions: Homo sapiens, CWR22Rv1, 144 h, 6 days culture, read-out: IC50 against CWR22RV1 cells (text)
`CNC(=O)Nc1ccc2c(c1)CC[C@@]21OC(=O)N(CC(=O)N2C(c3ccc(F)cc3)CC[C@@H]2C)C1=O` (stereo partly drawn) [Example 15, 1-((R)-3′-(2-((5S)-2-(4-fluorophenyl)-5-methylpyrrolidin-1-yl)-2-oxoethyl)-2′,4′-dioxo2,3-dihydrospiro[indene-1,5′-oxazolidine]-5-yl)-3-methylurea] gave an IC50 of at most 500 nM. `CNC(=O)Nc1ccc2c(c1)CC[C@@]21OC(=O)N(CC(=O)N2C(c3ccc(F)cc3)CC[C@H]2C)C1=O` (stereo partly drawn) [Example 18, 1-((R)-3′-(2-((5R)-2-(4-fluorophenyl)-5-methylpyrrolidin-1-yl)-2-oxoethyl)-2′,4′-dioxo-2,3-dihydrospiro[indene-1,5′-oxazolidine]-5-yl)-3-methylurea] gave an IC50 of at most 500 nM.
